According to ChEMBL document CHEMBL3580659, “One-pot multicomponent synthesis of indole incorporated thiazolylcoumarins and their antibacterial, anticancer and DNA cleavage studies” (2015):

Tests used:
Type in all cases: functional
SNB-19 [1] = test: Cytotoxicity against human SNB19 cells assessed as cell growth level at 1 uM after 48 hrs by sulforhodamine B assay
A498 = test: Cytotoxicity against human A498 cells assessed as cell growth level at 1 uM after 48 hrs by sulforhodamine B assay
SF-268 = test: Cytotoxicity against human SF268 cells assessed as cell growth level at 100 nM after 48 hrs by sulforhodamine B assay
NCI-H460 = test: Cytotoxicity against human NCI-H460 cells after 48 hrs by sulforhodamine B assay; details: NCI-H460, 48 h
SK-MEL-5 [2] = test: Cytotoxicity against human SK-MEL-5 cells after 48 hrs by sulforhodamine B assay; details: SK-MEL-5, 48 h
NCI-H322M [3] = test: Cytotoxicity against human NCI-H322M cells assessed as cell growth level at 1 uM after 48 hrs by sulforhodamine B assay
SK-OV-3 = test: Cytotoxicity against human SKOV3 cells after 48 hrs by sulforhodamine B assay; details: SK-OV-3, 48 h
MCF7 = test: Cytotoxicity against human MCF7 cells assessed as cell growth level at 10 nM after 48 hrs by sulforhodamine B assay
NCI-H522 [4] = test: Cytotoxicity against human NCI-H522 cells assessed as cell growth level at 10 uM after 48 hrs by sulforhodamine B assay
PC-3 = test: Cytotoxicity against human PC3 cells assessed as cell growth level at 100 uM after 48 hrs by sulforhodamine B assay
CCRF-CEM [5] = test: Cytotoxicity against human CCRF-CEM cells assessed as cell growth level at 10 uM after 48 hrs by sulforhodamine B assay
UACC-257 = test: Cytotoxicity against human UACC257 cells assessed as cell growth level at 1 uM after 48 hrs by sulforhodamine B assay
U-251 [6] = test: Cytotoxicity against human U251 cells assessed as cell growth level at 10 nM after 48 hrs by sulforhodamine B assay
UACC-62 = test: Cytotoxicity against human UACC62 cells assessed as cell growth level at 10 nM after 48 hrs by sulforhodamine B assay
SK-MEL-2 = test: Cytotoxicity against human SK-MEL-2 cells assessed as cell growth level at 1 uM after 48 hrs by sulforhodamine B assay
SK-MEL-28 [7] = test: Cytotoxicity against human SK-MEL-28 cells assessed as cell growth level at 10 uM after 48 hrs by sulforhodamine B assay
HCT-116 = test: Cytotoxicity against human HCT116 cells assessed as cell growth level at 100 nM after 48 hrs by sulforhodamine B assay
NCI-H322M [8] = test: Cytotoxicity against human NCI-H322M cells assessed as cell growth level at 100 uM after 48 hrs by sulforhodamine B assay
SK-MEL-28 [9] = test: Cytotoxicity against human SK-MEL-28 cells after 48 hrs by sulforhodamine B assay; details: SK-MEL-28, 48 h
IGROV-1 = test: Cytotoxicity against human IGROV1 cells assessed as cell growth level at 1 uM after 48 hrs by sulforhodamine B assay
SF-539 = test: Cytotoxicity against human SF539 cells assessed as cell growth level at 100 nM after 48 hrs by sulforhodamine B assay
A549 = test: Cytotoxicity against human A549/ATCC cells assessed as cell growth level at 10 uM after 48 hrs by sulforhodamine B assay
HOP-92 = test: Cytotoxicity against human HOP92 cells assessed as cell growth level at 10 uM after 48 hrs by sulforhodamine B assay
RXF 393 = test: Cytotoxicity against human RXF393 cells assessed as cell growth level at 100 nM after 48 hrs by sulforhodamine B assay
SF-295 = test: Cytotoxicity against human SF295 cells assessed as cell growth level at 100 nM after 48 hrs by sulforhodamine B assay
SK-MEL-5 [10] = test: Cytotoxicity against human SK-MEL-5 cells assessed as cell growth level at 10 nM after 48 hrs by sulforhodamine B assay
HOP-62 = test: Cytotoxicity against human HOP62 cells assessed as cell growth level at 1 uM after 48 hrs by sulforhodamine B assay
HCT-15 = test: Cytotoxicity against human HCT15 cells assessed as cell growth level at 100 uM after 48 hrs by sulforhodamine B assay
U-251 [11] = test: Cytotoxicity against human U251 cells assessed as cell growth level at 10 uM after 48 hrs by sulforhodamine B assay
SW-620 [12] = test: Cytotoxicity against human SW620 cells assessed as cell growth level at 100 uM after 48 hrs by sulforhodamine B assay
T47D = test: Cytotoxicity against human T47D cells assessed as cell growth level at 100 nM after 48 hrs by sulforhodamine B assay
SNB-19 [13] = test: Cytotoxicity against human SNB19 cells assessed as cell growth level at 100 nM after 48 hrs by sulforhodamine B assay
ACHN = test: Cytotoxicity against human ACHN cells assessed as cell growth level at 10 uM after 48 hrs by sulforhodamine B assay
SN12C = test: Cytotoxicity against human SN12C cells assessed as cell growth level at 10 nM after 48 hrs by sulforhodamine B assay
SW-620 [14] = test: Cytotoxicity against human SW620 cells after 48 hrs by sulforhodamine B assay; details: SW-620, 48 h
[15] = Cytotoxicity against human NCI-ADR-RES cells assessed as cell growth level at 100 nM after 48 hrs by sulforhodamine B assay
SR = test: Cytotoxicity against human SR cells assessed as cell growth level at 100 nM after 48 hrs by sulforhodamine B assay
NCI-H522 [16] = test: Cytotoxicity against human NCI-H522 cells assessed as cell growth level at 100 nM after 48 hrs by sulforhodamine B assay
CCRF-CEM [17] = test: Cytotoxicity against human CCRF-CEM cells assessed as cell growth level at 1 uM after 48 hrs by sulforhodamine B assay
NCI-H322M [18] = test: Cytotoxicity against human NCI-H322M cells assessed as cell growth level at 100 nM after 48 hrs by sulforhodamine B assay
[19] = read-out: LC50 (the source's name)
[20] = read-out: pLC50 (the source's name) (converted)

Structure (SMILES): O=c1oc2ccccc2cc1-c1csc(N/N=C/c2c[nH]c3ccccc23)n1
- Activity (SNB-19 [1]): 73%
- Activity (A498): 61%
- Activity (SF-268): 88%
- GI50 (NCI-H460; read-out: GI50): 2.84 µM
- LC50 (NCI-H460; read-out: LC50): > 100 µM
- TGI (NCI-H460; read-out: TGI): 9.69 µM
- GI50 (NCI-H460; read-out: pGI50 (converted)): 2.82 µM
- LC50 (NCI-H460; read-out: pLC50 (converted)): > 100 µM
- TGI (NCI-H460; read-out: pTGI (converted)): 9.77 µM
- GI50 (SK-MEL-5 [2]; read-out: GI50): 2.09 µM
- CC50 (SK-MEL-5 [2]; [19]): 15.2 µM
- TGI (SK-MEL-5 [2]; read-out: TGI): 4.97 µM
- GI50 (SK-MEL-5 [2]; read-out: pGI50 (converted)): 2.09 µM
- CC50 (SK-MEL-5 [2]; [20]): 15.1 µM
- TGI (SK-MEL-5 [2]; read-out: pTGI (converted)): 5.01 µM
- Activity (NCI-H322M [3]): 92%
- GI50 (SK-OV-3; read-out: GI50): 3.95 µM
- CC50 (SK-OV-3; [19]): > 100 µM
- TGI (SK-OV-3; read-out: TGI): > 100 µM
- GI50 (SK-OV-3; read-out: pGI50 (converted)): 3.98 µM
- CC50 (SK-OV-3; [20]): > 100 µM
- TGI (SK-OV-3; read-out: pTGI (converted)): 100 µM
- Activity (MCF7): 98%
- Activity (NCI-H522 [4]): -77.8%
- Activity (PC-3): -20%
- Activity (CCRF-CEM [5]): -26.91%
- Activity (UACC-257): 82%
- Activity (U-251 [6]): 100%
- Activity (UACC-62): 95%
- Activity (SK-MEL-2): 90%
- Activity (SK-MEL-28 [7]): 54.83%
- Activity (HCT-116): 91%
- Activity (NCI-H322M [8]): -10%
- GI50 (SK-MEL-28 [9]; read-out: GI50): 3.96 µM
- CC50 (SK-MEL-28 [9]; [19]): > 100 µM
- TGI (SK-MEL-28 [9]; read-out: TGI): 96.9 µM
- GI50 (SK-MEL-28 [9]; read-out: pGI50 (converted)): 3.98 µM
- CC50 (SK-MEL-28 [9]; [20]): > 100 µM
- TGI (SK-MEL-28 [9]; read-out: pTGI (converted)): 97.7 µM
- Activity (IGROV-1): 58%
- Activity (SF-539): 88%
- Activity (A549): -30.98%
- Activity (HOP-92): -14.45%
- Activity (RXF 393): 93%
- Activity (SF-295): 97%
- Activity (SK-MEL-5 [10]): 96%
- Activity (HOP-62): 103%
- Activity (HCT-15): -48%
- Activity (U-251 [11]): -6.38%
- Activity (SW-620 [12]): -7%
- Activity (T47D): 96%
- Activity (SNB-19 [13]): 89%
- Activity (ACHN): 10.07%
- Activity (SN12C): 88%
- GI50 (SW-620 [14]; read-out: GI50): 2.19 µM
- CC50 (SW-620 [14]; [19]): 70.9 µM
- TGI (SW-620 [14]; read-out: TGI): 5.24 µM
- GI50 (SW-620 [14]; read-out: pGI50 (converted)): 2.19 µM
- CC50 (SW-620 [14]; [20]): 70.8 µM
- TGI (SW-620 [14]; read-out: pTGI): 5.25 µM
- Activity [15]: 110%
- Activity (SR): 102%
- Activity (NCI-H522 [16]): 107%
- Activity (CCRF-CEM [17]): 7%
- Activity (NCI-H322M [18]): 102%
